Entries after “also recorded” stand apart in the source; their conditions may differ.
How the values were obtained:
UGT1A4 = biological target: T1, UGT1A4 (Homo sapiens, UniProt P22310); assay: Inhibition of UGT1A4-catalyzed trifluoperazine N-β-D-glucuronidation in ultrapooled human liver microsomes; type: in vitro ADME
T1 construct: ultrapooled human liver microsomes (0.2 mg/mL); from tissue; host or cells: human liver microsomes (ultrapooled)
T1 sequence (P22310 29-534): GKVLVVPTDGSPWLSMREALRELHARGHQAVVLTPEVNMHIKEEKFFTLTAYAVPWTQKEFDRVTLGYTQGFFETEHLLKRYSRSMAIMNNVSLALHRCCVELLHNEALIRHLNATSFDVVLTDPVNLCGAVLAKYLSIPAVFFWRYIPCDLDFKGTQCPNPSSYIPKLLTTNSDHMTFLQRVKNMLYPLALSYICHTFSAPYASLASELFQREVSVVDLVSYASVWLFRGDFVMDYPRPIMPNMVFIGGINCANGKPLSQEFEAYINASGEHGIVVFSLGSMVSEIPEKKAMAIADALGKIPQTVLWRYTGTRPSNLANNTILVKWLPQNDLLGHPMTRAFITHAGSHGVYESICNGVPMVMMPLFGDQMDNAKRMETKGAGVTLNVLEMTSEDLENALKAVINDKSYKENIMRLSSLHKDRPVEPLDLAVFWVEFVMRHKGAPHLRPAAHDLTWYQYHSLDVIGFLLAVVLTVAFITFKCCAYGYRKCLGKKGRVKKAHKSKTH
Protocol: The inhibitory potential of mertansine on UGT1A1, UGT1A3, UGT1A4, UGT1A6, UGT1A9, and UGT2B7 activities was evaluated using liquid chromatography–tandem mass spectrometry (LC-MS/MS) with a cocktail of UGT substrates and ultrapooled human liver microsomes. Each incubation mixture was prepared to a final volume of 100 μL as follows: ultrapooled human liver microsomes (0.2 mg/mL), 5 mM UDPGA, 10 mM magnesium chloride, alamethicin (25 μg/mL), 50 mM Tris buffer (pH 7.4), various concentrations of mertansine in methanol (final concentrations of 0.01–50 μM), and the cocktail sets of UGT enzyme-specific substrates. Two cocktail sets were used: set A contained 0.5 μM SN-38 for UGT1A1, 2 μM chenodeoxycholic acid for UGT1A3, and 0.5 μM trifluoperazine for UGT1A4; and set B contained 1 μM N-acetylserotonin for UGT1A6, 0.2 μM mycophenolic acid for UGT1A9, and 1 μM naloxone for UGT2B7. The reactions were initiated by adding UDPGA and incubated in a shaking water bath for 60 min at 37 °C. […] Next, 50 μL of each supernatant of sets A and B was mixed, and aliquots (5 μL) were analyzed using LC-MS/MS. […]
The LC-MS/MS system was comprised of an Agilent 6495 triple quadrupole mass spectrometer coupled with an Agilent 1290 Infinity system (Agilent Technologies, Wilmington, DE, USA). […] The electrospray ionization (ESI) source settings in both positive and negative ion modes were as follows: gas temperature, 200 °C; gas flow, 14 L/min; nebulizer, 40 psi; sheath gas temperature, 380 °C; sheath gas flow, 11 L/min; capillary voltage, 4500 V; and nozzle voltage, 500 V. Each metabolite was quantified via selected reaction monitoring in the negative ion mode (chenodeoxycholic acid 24-acyl-β-glucuronide, m/z 567.1 to 391.2; mycophenolic acid β-D-glucuronide, m/z 495.0 to 319.0; propofol glucuronide (IS), m/z 353.0 to 177.0) and in the positive ion mode (SN-38 glucuronide, m/z 568.9 to 392.9; trifluoperazine N-β-D-glucuronide, m/z 583.9 to 407.9; N-acetylserotonin β-D-glucuronide, m/z 394.0 to 219.0; naloxone 3-β-D-glucuronide, m/z 503.9 to 309.9; meloxicam (IS), m/z 351.9 to 115.0). […]

UGT2B7 = biological target: T2, UGT2B7 (Homo sapiens, UniProt P16662); assay: Inhibition of UGT2B7-catalyzed naloxone 3-β-D-glucuronidation in ultrapooled human liver microsomes; type: in vitro ADME
T2 construct: ultrapooled human liver microsomes (0.2 mg/mL); from tissue; host or cells: human liver microsomes (ultrapooled)
T2 sequence (P16662 24-529): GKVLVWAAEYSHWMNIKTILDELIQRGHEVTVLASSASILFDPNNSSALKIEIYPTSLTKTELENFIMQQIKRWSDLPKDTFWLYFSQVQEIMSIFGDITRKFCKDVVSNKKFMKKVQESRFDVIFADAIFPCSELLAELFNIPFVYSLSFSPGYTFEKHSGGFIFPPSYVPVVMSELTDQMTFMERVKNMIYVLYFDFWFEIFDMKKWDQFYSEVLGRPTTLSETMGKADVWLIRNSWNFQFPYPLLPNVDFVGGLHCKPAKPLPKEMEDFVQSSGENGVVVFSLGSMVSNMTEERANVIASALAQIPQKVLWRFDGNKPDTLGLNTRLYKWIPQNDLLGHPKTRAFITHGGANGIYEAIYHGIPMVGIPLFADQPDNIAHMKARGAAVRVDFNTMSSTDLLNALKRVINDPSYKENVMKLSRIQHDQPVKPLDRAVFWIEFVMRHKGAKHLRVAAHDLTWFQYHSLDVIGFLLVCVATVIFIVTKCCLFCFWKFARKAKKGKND
Protocol: The inhibitory potential of mertansine on UGT1A1, UGT1A3, UGT1A4, UGT1A6, UGT1A9, and UGT2B7 activities was evaluated using liquid chromatography–tandem mass spectrometry (LC-MS/MS) with a cocktail of UGT substrates and ultrapooled human liver microsomes. Each incubation mixture was prepared to a final volume of 100 μL as follows: ultrapooled human liver microsomes (0.2 mg/mL), 5 mM UDPGA, 10 mM magnesium chloride, alamethicin (25 μg/mL), 50 mM Tris buffer (pH 7.4), various concentrations of mertansine in methanol (final concentrations of 0.01–50 μM), and the cocktail sets of UGT enzyme-specific substrates. Two cocktail sets were used: set A contained 0.5 μM SN-38 for UGT1A1, 2 μM chenodeoxycholic acid for UGT1A3, and 0.5 μM trifluoperazine for UGT1A4; and set B contained 1 μM N-acetylserotonin for UGT1A6, 0.2 μM mycophenolic acid for UGT1A9, and 1 μM naloxone for UGT2B7. The reactions were initiated by adding UDPGA and incubated in a shaking water bath for 60 min at 37 °C. Reactions were terminated by adding 50 μL of ice-cold acetonitrile containing internal standards (IS, propofol glucuronide for set A and meloxicam for set B). Incubation mixtures were centrifuged at 13,000 g for 8 min at 4 °C. Next, 50 μL of each supernatant of sets A and B was mixed, and aliquots (5 μL) were analyzed using LC-MS/MS. […]

CYP3A4 mRNA = assay: in vitro; details: human, hepatocytes, IC50, suppression of CYP3A4 mRNA expression, 1.25–2500 nM
UGT1A9 mRNA = UGT1A9 mRNA level in human hepatocytes after 48 h treatment (RT-PCR); details: plated cryopreserved human hepatocytes, IC50, suppression of UGT1A9 mRNA expression, 1.25–2500 nM
[1] = Mean ± SD of three human hepatocyte lots, 48 h
[2] = human hepatocytes Lot 319, 48 h
[3] = human hepatocytes Lot 321, 48 h
[4] = human hepatocytes Lot 361, 48 h

`COc1cc2cc(c1Cl)N(C)C(=O)CC(OC(=O)C(C)N(C)C(=O)CCS)C1(C)OC1C(C)C1CC(O)(NC(=O)O1)C(OC)C=CC=C(C)C2` (stereo not shown) [mertansine, Mertansine] was tested, and the “Inhibition Mode, UGT1A4” value (UGT1A4; human liver microsomes, Dixon plot) was “competitively inhibited; also recorded: competitive inhibitor”, the Ki (UGT1A4; human liver microsomes, trifluoperazine 0.2–2 µM) was 21.2 µM and the IC50 (UGT1A4; ultrapooled human liver microsomes, 0.5 µM trifluoperazine (cocktail)) was 23.3 µM. For the same compound, the “Inhibition of UGT2B7 enzyme activity” value (UGT2B7; human liver microsomes, mertansine at 50 µM) was “no inhibition; also recorded: negligibly inhibited”, the “IC50, naloxone 3-β-D-glucuronidation (UGT2B7)” value (UGT2B7; ultrapooled human liver microsomes, 1 µM naloxone (cocktail)) was “No inhibition” and the IC50 (CYP3A4 mRNA; [1]) was 161 ± 167 nM. It also gave an IC50 (CYP3A4 mRNA; [2]) of 344 nM, an IC50 (CYP3A4 mRNA; [3]) of 120 nM and an IC50 (CYP3A4 mRNA; [4]) of 16.8 nM. It also gave an IC50 at 48 h (UGT1A9 mRNA; [1]) of 54.1 ± 29.1 nM, an IC50 at 48 h (UGT1A9 mRNA; [2]) of 86.9 nM and an IC50 at 48 h (UGT1A9 mRNA; [3]) of 31.4 nM. The IC50 at 48 h (UGT1A9 mRNA; [4]) was 44.1 nM.

Source: article PMC7150891, “Mertansine Inhibits mRNA Expression and Enzyme Activities of Cytochrome P450s and Uridine 5′-Diphospho-Glucuronosyltransferases in Human Hepatocytes and Liver Microsomes” (Pharmaceutics, 2020)
